The data set in a line: toxicity per os (LD50). Type of data set: in vivo. From the text:
Furthermore, their toxicities are extremely low in comparison with previously known cytostatic and cancer retardant pharmaceuticals.

Where a name gives a salt, the structure may show the parent alone. Read-outs that look alike come from different tables or passages of the source.

For orientation: LD50 means the dose expected to kill half of the subjects tested. As to `Clc1ccc(C(c2ccccc2)N2CC[N+]3(CCOCC3)CC2)cc1.[Br-]` (stereo not drawn) [X = Br, N^1-(4'-chlorobenzhydryl) -N^4-spiromorpholinopiperazinium bromide], the LD50 is recorded as 308.5 mg/kg. Regarding `Clc1ccc(C(c2ccccc2)N2CC[N+]3(CCOCC3)CC2)cc1` (stereo not drawn) [X = Cl, N^1-(4'-chlorobenzhydryl)-N^4-spiro-morpholino-piperazinium chloride-hydrochloride], where the note is “in vivo, po, read-out: LD50”, the LD50 came to 316 mg/kg. On to `Clc1ccc(C(c2ccccc2)N2CC[N+]3(CCOCC3)CC2)cc1` (stereo not drawn) [X = I, N^1-(4'-chlorobenzhydryl)-N^4-spiromorpholinopiperazinium iodide], for which the LD50 was 276.7 mg/kg.
